Experimental data published in a melting point compilation (Tetko et al.; mined from patent text by program, amines drawn as free bases though some values may be those of a salt).
Residues, ends and D or L forms follow the SMILES beside them. *: point of attachment. Tos = Cc1ccc(S(=O)(=O)*)cc1

melting point	SMILES
136 to 138 °C	CC(=O)Nc1nc(C)c(CCC(C)c2ccc(Cl)cc2)c(NC(C)=O)n1 (stereo unspecified)
49 to 55 °C	CCOC(=O)c1[nH]c2ccc(C[C@H]3COC(=O)N3)cc2c1CCN(C)C
189 °C	N#CC1=C(Nc2cc(C(F)(F)F)ccc2N)CSC1
77 to 80 °C	Cc1c(C#N)sc(Br)c1Br
249 to 252 °C	O=C(O)Cn1c(=O)sc2cc(Br)c(Cl)cc21
169 to 170 °C	COc1ccccc1-n1c(-c2sc(Nc3ccccc3)nc2C)nc2ccccc2c1=O
160 °C	CC(=O)OC1CSC(Oc2cccnc2F)C(OC(C)=O)C1OC(C)=O (stereo unspecified)
249 to 251 °C	CCc1ccc(NC2=CC3=NCN(C)C3=CC2(F)C(N)=O)c(F)c1 (stereo unspecified)
156 to 157 °C	CS(=O)(=O)c1ccc(-c2oc(CO)nc2-c2ccc(F)cc2)cc1
236 to 238 °C	CSc1nc(C)n(CC(=O)O)c(=O)c1C#N
147 to 148 °C	COc1cc(C(O)CS(C)(=O)=O)cc(OC)c1N(C)C (stereo unspecified)
61 to 66 °C	CC(C)(Cl)Cn1ncc(Cl)c(Cl)c1=O
154 to 156 °C	CCCn1c(=O)c2c(NC)n(C(=O)C(C)C)nc2n(Cc2cccc(Cl)c2)c1=O
106 to 108 °C	COc1cc(S(C)=O)c(C)cc1OCC(=O)NCC(O)COc1ccccc1C (stereo unspecified)
92 to 95 °C	O=C(CCc1ccccc1)N1C(=O)OC[C@@H]1Cc1ccccc1
208 to 210 °C	O=C(O)c1ccc(COc2ccc(-c3ccc(-c4c(Cc5ccccc5)oc5ccccc45)cc3)cc2)cc1
224 °C	COc1cccc(OC)c1CC(=O)N1C[C@@H]2C(=O)CCC(c3ccccc3)(c3ccccc3)[C@@H]2C1 (racemic)
81 to 82 °C	O=c1c(Cl)nsnc1Cl
117 to 119 °C	CC(C)CC(NC(=O)CCc1ccccc1)C(=O)N[C@@H](Cc1ccccc1)C(=O)CSCc1ccco1 (stereo partly specified)
253 °C	CCCCn1c(SC(CC)C(N)=O)nc2c1c(=O)[nH]c(=O)n2C (stereo unspecified)
176 to 180 °C	CCOC(=O)C1=C(O)[C@H](CC2CCCCC2)NC1=O

melting point	SMILES
144 to 146 °C	O=S(=O)(NCCCCOc1ccc(-n2ccnc2)cc1)c1cc(Cl)ccc1Cl
98 to 99 °C	CC(C)(C)OC(=O)N1CC(O)C(NS(=O)(=O)c2ccc(Oc3ccccc3)cc2)C1 (stereo unspecified)
> 268 °C	Oc1ccc(-c2cnc3cnc(-c4ccccc4O)nc3c2)cc1
85 to 87 °C	O=C(CBr)OCC1OC(Sc2ccccc2)C(OCc2ccccc2)C(OCc2ccccc2)C1OCc1ccccc1 (stereo unspecified)
174 to 176 °C	CC(C)(C)N1CN(c2ccccc2)C2=NN=CC2=C1N
163 to 165 °C	CC(=O)OCC1OC(OC(C)=O)C(O)C(OC(C)=O)C1OC(C)=O (stereo unspecified)
134 to 135 °C	COc1ccc2c(N3CCc4c(Br)ccc(C)c43)ncnc2c1
268 to 271 °C	Cc1cc2c(cc1S(=O)(=O)N1CCOCC1)S(=O)(=O)NC(C1CCCCC1)N2 (stereo unspecified)
74 to 77 °C	CCOC(=O)N1CCCC(NC(=O)c2ccc(Cl)c(Cl)c2)C12CCCCC2 (stereo unspecified)
64 to 67 °C	CC[C@H](C)[C@H](NC(=O)N(C)Cc1ccccn1)C(=O)N[C@@H](Cc1ccccc1)C[C@H](O)[C@H](Cc1ccccc1)NC(=O)OCc1cncs1
158 °C	Cc1cc(OS(=O)(=O)c2c(F)cccc2F)cc2c(C3CCN(C)CC3)cn(Cc3ccccc3)c12
53 to 55 °C	CCCCC1OC(=O)c2cc([N+](=O)[O-])ccc21 (stereo unspecified)
202 to 204 °C	O=C(O)c1cn(C2CC2)c2cc(N3CCNC(c4ccoc4)C3)c(F)cc2c1=O (stereo unspecified)
174 to 175 °C	CC(=O)N1c2ccccc2Sc2nccnc21
120 to 122 °C	Cc1oc(-c2ccco2)nc1CCOc1ccc([N+](=O)[O-])cn1
229 to 231 °C	CCOC(=O)c1c(C#N)c2c(c3[nH]c4ccccc4c13)CCC2
100 to 101 °C	Cc1noc(CCNC(c2ccccc2)(c2ccccc2)c2ccccc2)n1
80 to 81 °C	c1ccc(COc2ccc(CCCn3ccnc3)cc2)cc1
178 °C	Cc1cc(C(O)CN2CCC(O)(c3ccc4c(c3)COCC4)CC2)ccc1O (stereo unspecified)
> 300 °C	CCCNC(=O)Nc1ccc(-c2cc3[nH]c(=O)[nH]c3nc2C)cc1
131 to 133 °C	O=C(c1ccc(O)c(Cl)c1Cl)c1ccnn1Cc1ccccc1

Continued, molecule first:

SMILES	melting point
CCOC(=O)c1ccc(Cl)c(Cl)c1	33 to 35 °C
N#CCc1nnc2n1-c1ccc(Cl)cc1C(c1ccccc1)=NC2	198 to 201 °C
CCOC(=O)c1c(-c2ccc(OC)cc2)c2oc3ccc(-c4ccccc4)cc3c2n(Cc2cc(OC)ccc2OC)c1=O	216 °C
O=C(NCCOc1ccc(CC(Oc2ccc(F)c(F)c2)C(=O)O)cc1)c1ccc(-c2ccccn2)cc1 (stereo unspecified)	135 to 136 °C
CCc1cc(C(F)(C(F)(F)F)C(F)(F)F)cc(C)c1NC(=O)c1cccc(N)c1	143 to 145 °C
Cc1cc(O)c(C2C=CN(C)CC2)c(O)c1 (stereo unspecified)	241 to 243 °C
CCCCCc1csc(-c2ccc3c(c2)C=C(C(=O)Nc2ccc(CN(C)C4CCOCC4)cc2)CCS3(=O)=O)c1	204 to 206 °C
CC(N)=CC(=O)CS(=O)(=O)N(C)C	137 to 140 °C
CN1CCC(C)(O)C(C)(C)C1Cc1ccccc1 (stereo unspecified)	95 to 103 °C
N#Cc1cc(-c2ccnc(Nc3cccc(C(F)(F)F)c3)n2)ccn1	164 to 166 °C
CC1=NCC2CC(=O)N(c3ccccc3)c3cc(Cl)ccc3N12 (stereo unspecified)	248 to 251 °C
CN1CCCC1=NC(=O)Nc1c(Br)cc(Br)cc1Br	165 to 168 °C
CCOC(=O)c1ncn(-c2nc(C)c(Cl)s2)c1S(N)(=O)=O	136 to 139 °C
CC(=O)Nc1cccc(Oc2cc(-c3ccc(C(F)(F)F)cc3)ncn2)c1	202 to 205 °C
O=C1N=NC(Cc2ccc(OCCc3coc(-c4ccccc4)n3)cc2)O1 (stereo unspecified)	142 to 144 °C
Cn1c(=O)c(-c2c(Cl)cccc2Cl)cc2cnc(Nc3ccc(Cl)cc3)nc21	255 to 256 °C
FC(F)(F)c1cc(/C=C/c2ncon2)ccc1Cl	85 to 87 °C
Fc1cc2c(c(OCCNCCCc3c[nH]c4ccc(F)cc34)c1)OCCC2	137 to 138 °C
COC(=O)c1cc(Cl)c(I)cc1OC	72 to 73 °C
CC(=O)OC1C(NC(=O)c2ccc(C(F)(F)F)cc2)c2sc(C(C)=O)cc2OC1(C)C (stereo unspecified)	225 to 227 °C

SMILES	melting point
CC(=O)Nc1ccccc1C(=O)Nc1ccc(N2CCN3CCC2CC3)cc1	191 °C
CC(C)C(=O)NCCOc1ccc(N)cc1	99 to 100 °C
O=C(Nc1ccc(OS(=O)(=O)c2cccc(C(F)(F)F)c2)cc1[N+](=O)[O-])NS(=O)(=O)Cl	152 °C
O=c1[nH]sc2c1CCC2	177 to 179 °C
Cn1c(=S)n(C)c(=O)n(-c2cc(O)c(Cl)cc2F)c1=O	242 to 246 °C
CN1Cc2c(C(=O)NN)ncn2-c2ccc(F)c(Cl)c2C1=O	308 to 310 °C
S=C1Nc2cccnc2Nc2cscc21	255 to 260 °C
CC(C)(C)CC1(C)CC(C)(C)c2ccc(O)cc21 (stereo unspecified)	102 °C
Nc1nc(Cl)c2c(n1)CCCS2	196 to 198 °C
CON=C(N)C1=Nc2ccc(Cl)cc2C(c2ccccc2F)=NC1	120 to 124 °C
COC(=O)/C=C/C=C(\C)c1ccc(OC)cc1	84 to 86 °C
O=C1c2ccccc2C(=O)N1c1nc(Cl)nc(Cl)n1	175 to 179 °C
O=C(O)C1CCc2c([nH]c3ccc(F)cc23)C1 (stereo unspecified)	> 200 °C
OC(COc1ccccc1Br)C(Cl)(Cl)Cl (stereo unspecified)	88 to 90 °C
CC(=O)c1cnccc1NC(=O)C(C)(C)C	95 °C
C#CCOC(=O)c1ncn2c1CN(C)C(=O)c1c(Cl)cccc1-2	198 to 200 °C
COc1ccc(C2CSc3ccccc3N(CCCl)C2=O)cc1 (stereo unspecified)	70 °C
NC(=O)[C@H]1CN(c2ccc(C3CCOCC3)c(F)c2)C(=O)O1	153 to 156 °C
CCOP(=O)(OCC)c1nc(N2CCCCC2)nc(N2CCCCC2)n1	103 to 105 °C
CC(C)(C)OC(=O)N1C2CCC1CNC2	102 to 104 °C

SMILES	melting point
Nc1ncc2c(n1)CCC(NC(=O)[C@@H]1CCCN1C(=O)[C@@H](Cc1ccccc1)NS(=O)(=O)Cc1ccccc1)C2 (stereo partly specified)	117 to 120 °C
CC(C)(C)OC(=O)N[C@H]1CC[C@@H](OS(C)(=O)=O)C1	88 to 89 °C
Cn1nc(COc2ccc(CCCC#N)cc2)nc1-c1ccccc1	106 to 107 °C
COc1cc(Nc2c(C#N)cnc3cc(-c4csc(C5OCCO5)c4)ccc23)c(Cl)cc1Cl	234 to 236 °C
CCc1cc(C(=O)O)c2cc(C(C)C)cccc1-2	154 to 156 °C
CN1CCCC(c2cc3ccccc3c(=O)[nH]2)C1 (stereo unspecified)	155 to 156 °C
COc1ccc(-c2oc3cc(OC)cc(O)c3c(=O)c2OC)cc1	143 to 145 °C
Cc1ccc(S(=O)(=O)N2CCC[C@H]2C(=O)N[C@@H](CCC(N)=O)C(=O)O)cc1 (Tos-Pro-Gln-OH)	45 to 55 °C
CC(=O)NC(=S)NCC1CC2c3cccc4[nH]cc(c34)CC2N(C)C1 (stereo unspecified)	204 to 205 °C
O=Cc1c(O)cccc1OCCCC(=O)O	151 to 153 °C
CC(C)CC(=O)N[C@H]1CC[C@H](CCN2CCC(c3cccc4c3CCO4)CC2)CC1	197 °C
Cc1cc(OCCN2CCc3ccc(NS(C)(=O)=O)cc3CC2)ccc1NS(C)(=O)=O	173 to 174 °C
O=C(NC1CCN(CCCOC(=O)c2ccccc2)CC1)c1ccccc1	146 to 147 °C
COc1ccc(OCc2nc(N)c3nccnc3n2)cc1	238 to 240 °C
O=C(O)CCCc1cc2cc(C(F)(F)F)ccc2n1S(=O)(=O)c1ccc2c(c1)CCO2	144 to 149 °C
CNc1cc(Oc2ccc3c(C(=O)Nc4ccc(N5CCOCC5)c(C(F)(F)F)c4)cccc3c2)ncn1	156 to 157 °C
Cc1cc(-c2cc(C(F)(F)F)nc(-n3cnc(-c4cccc(S(N)(=O)=O)c4)c3)n2)ccc1C(F)(F)F	180 °C
CCO[C@H](C(=O)N1C(=O)OC[C@@H]1Cc1ccccc1)[C@H](O)c1ccc2oc(Cc3nc(-c4ccccc4)oc3C)cc2c1	66 °C
CC(C)C(=O)Nc1cn(-c2cncc(F)c2)nc1CCl	172 to 177 °C
